# Non-standard residues stand in square brackets, D forms with d. Residues, ends and D or L forms follow the SMILES beside them. *: point of attachment. Phe(4-F) = N[C@@H](Cc1ccc(F)cc1)C(=O)O; 2Nal = N[C@@H](Cc1ccc2ccccc2c1)C(=O)O; NH(4-Me-benzyl) = Cc1ccc(CN*)cc1; Cit = NC(=O)NCCC[C@H](N)C(=O)O; Pip = O=C(O)[C@@H]1CCCCN1; Piperidide = C1CCN(*)CC1; X3 = C=CS(=O)(=O)*; ClAc = O=C(CCl)*; X1 = O=C(C1CO1)*
# Assays:
# Pin1 [1] = biological target: T1, Pin1 (Homo sapiens, UniProt Q13526); test: Cellular target engagement, live cell biotin competition assay in TNBC MDA-MB-231 cells; format: cell-based; set-up: endogenous in cells; host or cells: MDA-MB-231; conditions: TNBC MDA-MB-231 cells; for Cellular Target Engagement?: 5 hours treatment, concentration under E7
# Protocol: TNBC MDA-MB-231 cells were plated in 10 cm plates with 2.5 million cells per plate in 6 mL of media. The day after plating, cells were treated with the indicated concentrations of compound 18 for 5 hours. The cells were washed 2× with 0.9% NaCl (1 mL per 10 cm plate), and collected by scraping with a cell scraper. Cells were lysed in lysis buffer (50 mM Hepes pH 7.5, 150 mM NaCl, 1 mM EDTA, 10% v/v glycerol, 0.5% v/v […], protease inhibitors (Roche)) using 210 μL of cell lysis buffer per 10 cm plate of cells. After clarifying by centrifugation (14,000 rpm for 15 min at 4° C.), 5 μL of each lysate sample was combined with 5 μL of 2× LDS+10% β-mercaptoethanol, boiled for 5 minutes, and set aside for the input loading control (later to be loaded directly in the gel). Then, 200 μL of each lysate was then incubated with 1 μM of compound 2-32 (biotin probe compound) for 1 hour at 4° C. Lysates were then incubated with streptavidin agarose resin (30 μL of 1:1 beads: lysis buffer slurry) (Thermo Scientific™, cat. #20349) for 2 hours at 4° C. Beads were washed 4 times with 500 μL of washing buffer (50 mM Hepes, pH7.5, 10 mM NaCl, 1 mM EDTA, 10% glycerol), then pelleted by centrifugation and dried. The beads were then boiled at 95° C. for 5 minutes in 30 μL of 2× LDS+10% β-mercaptoethanol. Lysates were probed for specified proteins by western blotting using the Bolt system (Life Technologies™).
# Pin1 (GST-Pin1) = Pin1 (GST-Pin1) (Homo sapiens, UniProt Q13526); test: Fluorescence polarization (FP) assay, binding to Pin1; conditions: competition with fluorescein-labeled peptide probe; 12 hours pre-incubation at 4° C.; Kenakin Ki equation; read-out: Ki, μM (FP Assay)
# Pin1 [2] = biological target: T1, Pin1; test: Lysate target engagement (pull down with biotinylated probes; competition assay); format: binding; set-up: endogenous in cells; host or cells: MDA-MB-231; conditions: for Lysate Target Engagement?: TNBC-MDA-MB-231 lysate, biotin/dtb probes: pull down, others: competition, concentration under E5; for Lysate Target Engagement? concentration stated for the engagement or pull down: read with the E4 line of the same compound (complete, partial, probe pull down)
# Protocol: (§1) TNBC-MDA-MB-231 cells were lysed in lysis buffer (50 mM Hepes pH 7.5, 150 mM NaCl, 1 mM ethylenediaminetetraacetic acid (EDTA), 10% v/v glycerol, 0.5% v/v NP-40, protease inhibitors (Roche)). After clarifying by centrifugation (14,000 rpm for 15 min at 4° C.), lysates were incubated with the indicated concentrations of candidate compound for 1 hour at 4° C. (500 μg of protein per sample, as determined by BCA). Lysates were then incubated with streptavidin agarose resin (30 μL of 1:1 beads: lysis buffer slurry) (Thermo Scientific™, cat. #20349) for 2 hours at 4° C. Beads were washed 4 times with 500 μL of washing buffer (50 mM Hepes, pH 7.5, 10 mM NaCl, 1 mM EDTA, 10% glycerol), then pelleted by centrifugation and dried. The beads were then boiled at 95° C. for 5 minutes in 30 μL of 2× LDS+10% β-mercaptoethanol. Lysates were probed for specified proteins by western blotting using the Bolt system (Life Technologies™).
# as §1, with “mM EDTA,” for “mM ethylenediaminetetraacetic acid (EDTA),”, “by centrifugation,” for “by centrifugation (14,000 rpm for 15 min at 4° C.),”, “were pre-incubated” for “were incubated”, “of” for “of candidate”, “compound 18 overnight” for “compound for 1 hour”, “BCA). The lysates were then incubated with 1 μM of compound 2c (desthiobiotin probe) for 1 hour at 4° C.” for “BCA).”
# Pin1 Cys 113 = Pin1 Cys 113 (Homo sapiens, UniProt Q13526); test: Covalent labeling (intact MS); format: binding; conditions: purified Pin1 with 5 μM inhibitor, 0-3 hr
# Protocol: 5 μg of purified Pin1 protein in 50 μL of 20 mM HEPES pH 7.5 and 75 mM NaCl was incubated with 5 μM of respective Pin1 inhibitors for 0-3 hr. A Shimadzu XR HPLC was used to inject the entire sample onto a self-packed reverse-phase column (1/32 in outer diameter×500 μm inner diameter, 5 cm of POROS 50R2 resin). After desalting, protein was eluted with an HPLC gradient (0%-100% B in 4 min, A=0.2 M acetic acid in water, B=0.2 M acetic acid in acetonitrile, flow rate=10 μl/min) into a LTQ XL mass spectrometer (Thermo Fisher Scientific, San Jose, Calif., USA). LTQ XL MS spectra were acquired in centroid mode using the electron multipliers for ion detection. Mass spectra were deconvoluted using MagTran1.03b2 software (Zhang and Marshall, J. Am. Soc. Mass Spectrom. 9:225-233 (1998)).
# Chain of Pin1 Cys 113 (Q13526 whole entry): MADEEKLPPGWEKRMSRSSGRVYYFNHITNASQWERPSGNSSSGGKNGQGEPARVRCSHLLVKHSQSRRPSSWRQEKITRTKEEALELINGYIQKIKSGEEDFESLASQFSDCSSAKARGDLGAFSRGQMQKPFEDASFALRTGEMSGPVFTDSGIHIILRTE
# T1 sequence (Q13526 whole entry): as above
# Chain of Pin1 (GST-Pin1) (Q13526 whole entry): as above
Structure (SMILES),Cellular Target Engagement? (Pin1 [1]),Ki (Pin1 (GST-Pin1)) [µM],Lysate Target Engagement? (Pin1 [2]),Lysate Target Engagement? concentration stated for the engagement or pull down (Pin1 [2]),"Covalent? (In tact MS), % labeling (Pin1 Cys 113)",Cellular Target Engagement? concentration stated for complete engagement (Pin1 [1]; read with the E6 line)
"COC(=O)CC[C@H](NC(=O)CCl)C(=O)N1CCCC[C@H]1C(=O)N[C@@H](Cc1c[nH]c2ccccc12)C(=O)N[C@@H](Cc1c[nH]c2ccccc12)C(=O)NCc1ccc(C)cc1 [Compound 11-2, Methyl (S)-5-((S)-2-(((S)-1-(((S)-3-(1H-indol-3-yl)-1-((4-methylbenzyl)amino)-1-oxopropan-2-yl)amino)-3-(1H-indol-3-yl)-1-oxopropan-2-yl)carbamoyl)piperidin-1-yl)-4-(2-chloroacetamido)-5-oxopentanoate] (ClAc-E(OMe)[Pip]WW-{NH(4-Me-benzyl)})",No,> 10,No,–,–,–
"NC(=O)NCCC[C@H](NC(=O)[C@H](Cc1c[nH]c2ccccc12)NC(=O)[C@@H]1CCCCN1C(=O)[C@H](CCC(=O)O)NC(=O)CCl)C(N)=O [Compound 2b-18, (S)-5-((S)-2-(((S)-1-(((S)-1-Amino-1-oxo-5-ureidopentan-2-yl)amino)-3-(1H-indol-3-yl)-1-oxopropan-2-yl)carbamoyl)piperidin-1-yl)-4-(2-chloroacetamido)-5-oxopentanoic acid] (ClAc-E[Pip]W[Cit]-NH2)",No,–,Yes-Complete,at 5 μM,–,–
"NC(=O)NCCC[C@H](NC(=O)[C@H](Cc1ccc2ccccc2c1)NC(=O)[C@@H]1CCCCN1C(=O)[C@H](CCC(=O)O)NC(=O)C1CO1)C(N)=O (stereo partly drawn) [Compound 3b-1, (4S)-5-((S)-2-(((S)-1-(((S)-1-Amino-1-oxo-5-ureidopentan-2-yl)amino)-3-(naphthalen-2-yl)-1-oxopropan-2-yl)carbamoyl)piperidin-1-yl)-4-(oxirane-2-carboxamido)-5-oxopentanoic acid] (X1-E[Pip][2Nal][Cit]-NH2)",No,1.61,No,–,Yes (93%,–
"COC(=O)CC[C@H](NC(=O)CCl)C(=O)N1CCCC[C@H]1C(=O)N[C@@H](Cc1c[nH]c2ccccc12)C(=O)N[C@@H](Cc1ccc(O)cc1)C(=O)NCc1ccc(C)cc1 [Compound 11-1, Methyl (S)-4-(2-chloroacetamido)-5-((S)-2-(((S)-1-(((S)-3-(4-hydroxyphenyl)-1-((4-methyl-benzyl)amino)-1-oxopropan-2-yl)amino)-3-(1H-indol-3-yl)-1-oxopropan-2-yl)carbamoyl)piperidin-1-yl)-5-oxopentanoate]",No,0.176,No,–,–,–
"NC(=O)[C@H](Cc1ccc(F)cc1)NC(=O)[C@H](Cc1c[nH]c2ccccc12)NC(=O)[C@@H]1CCCCN1C(=O)[C@H](CCC(=O)O)NC(=O)CCl [Compound 2-27, (S)-5-((S)-2-(((S)-1-(((S)-1-Amino-3-(4-fluorophenyl)-1-oxopropan-2-yl)amino)-3-(1H-indol-3-yl)-1-oxopropan-2-yl)carbamoyl)piperidin-1-yl)-4-(2-chloroacetamido)-5-oxopentanoic acid] (ClAc-E[Pip]W[Phe(4-F)]-NH2)",No,0.075,Yes-partial,at 10 μM,–,–
"C=CS(=O)(=O)N[C@@H](CCC(=O)O)C(=O)N1CCCC[C@H]1C(=O)N[C@@H](Cc1ccc2ccccc2c1)C(=O)N[C@@H](CCCNC(N)=O)C(N)=O [Compound 4, (S)-5-((S)-2-(((S)-1-(((S)-1-Amino-1-oxo-5-ureidopentan-2-yl)amino)-3-(naphthalen-2-yl)-1-oxopropan-2-yl)carbamoyl)piperidin-1-yl)-5-oxo-4(vinylsulfonamido)pentanoic acid] (X3-E[Pip][2Nal][Cit]-NH2)",–,0.35,No,–,Yes (93%,–
"Cc1ccc(CNC(=O)[C@H](CCCNC(N)=O)NC(=O)[C@H](Cc2c[nH]c3ccccc23)NC(=O)[C@@H]2CCCCN2C(=O)[C@H](Cc2ccccc2)NC(=O)CCl)cc1 [Compound 11-23, (S)—N—((S)-3-(1H-indol-3-yl)-1-(((S)-1-((4-methylbenzyl)amino)-1-oxo-5-ureidopentan-2-yl)amino)-1-oxopropan-2-yl)-1-((2-chloroacetyl)-L-phenylalanyl)piperidine-2-carboxamide] (ClAc-F[Pip]W[Cit]-{NH(4-Me-benzyl)})",Yes-Complete,0.004,–,–,Yes (100%,at 10 μM
"COC(=O)CC[C@H](NC(=O)CCl)C(=O)N1CCCC[C@H]1C(=O)N[C@@H](Cc1ccc2ccccc2c1)C(=O)N[C@@H](CCCNC(N)=O)C(N)=O [Compound 2-11, Methyl (S)-5-((S)-2-(((S)-1-(((S)-1-amino-1-oxo-5-ureidopentan-2-yl)amino)-3-(naphthalen-2-yl)-1-oxopropan-2-yl)carbamoyl)piperidin-1-yl)-4-(2-chloroacetamido)-5-oxopentanoate] (ClAc-E(OMe)[Pip][2Nal][Cit]-NH2)",No,0.06,Yes-complete,by 10 μM,–,–
"Cc1ccc(CNC(=O)[C@H](CCCNC(N)=O)NC(=O)[C@H](Cc2c[nH]c3ccccc23)NC(=O)[C@@H]2CCCCN2C(=O)[C@H](CCC(=O)O)NC(=O)CCl)cc1 [Compound 11-6, (S)-5-((S)-2-(((S)-3-(1H-indol-3-yl)-1-(((S)-1-((4-methylbenzyl)amino)-1-oxo-5-ureidopentan-2-yl)amino)-1-oxopropan-2-yl)carbamoyl)piperidin-1-yl)-4-(2-chloroacetamido)-5-oxopentanoic acid] (ClAc-E[Pip]W[Cit]-{NH(4-Me-benzyl)})",No,0.01,–,–,–,–
"NC(=O)NCCC[C@H](NC(=O)[C@H](Cc1c[nH]c2ccccc12)NC(=O)[C@@H]1CCCCN1C(=O)[C@H](Cc1ccccc1)NC(=O)CCl)C(=O)N1CCCCC1 [Compound 11-39, (S)—N—((S)-3-(1H-indol-3-yl)-1-oxo-1-(((S)-1-oxo-1-(piperidin-1-yl)-5-ureidopentan-2-yl)amino)propan-2-yl)-1-((2-chloroacetyl)-L-phenylalanyl)piperidine-2-carboxamide] (ClAc-F[Pip]W[Cit]-Piperidide)",No,0.017,–,–,–,–
